Measurements taken from patent US9382228B2 (priority 2013, dated 2016).

Assays:
osteoclast precursors = experiment: cells; type: cell-based; conditions: read-out: Osteoclast assay
[1] = tested on: phospho-FMS in THP-1 cells; experiment: cells; conditions: Homo sapiens, THP-1, read-out: pFMS inhibition in THP-1 cells
Method: In a separate 96 well black clear bottom plate, one hundred and fifty thousand THP-1 cells were added per well in 100 μL in assay medium. Fifty microliters of diluted compound was then added to the cells. […] Lysates were prepared and used to perform the phospho-FMS ELISA as described by the manufacturer (catalog #DYC3268, R & D Systems, Minneapolis, Minn.). GraphPad Prism was used to calculate IC50 values obtained from data generated from the ELISA assay.

[2] = biological target: unphosphorylated PDGFRβ kinase (uPDGFRβ, Seq. ID No. 3) (Homo sapiens, UniProt P09619); experiment: biochemical
M-NFS-60 cells = experiment: cells; conditions: 67 h, read-out: M-NFS-60 cell proliferation
Method: M-NFS-6 Cell Proliferation Assay
A serial dilution of test compound was dispensed into a 384-well black clear bottom plate (Corning, Corning, N.Y.). Two thousand five hundred cells were added per well in 50 μL complete growth medium. […] IC50 values were calculated from a series of percent inhibition values determined at a range of inhibitor concentrations using software routines as implemented in the GraphPad Prism software package.

[3] = biological target: unphosphorylated c-KIT kinase (uKIT, Seq. ID no. 2) (Homo sapiens, UniProt P10721); experiment: biochemical
Method: uKit kinase (Seq. ID No. 2) Assay
In this assay, the oxidation of NADH (thus the decrease at A340 nm) was continuously monitored spectrophometrically. […] The inhibition reaction was started by mixing serial diluted test compound with the above reaction mixture. The absorption at 340 nm was monitored continuously for 4 hours at 30° C. on Synergy 2 plate reader (BioTech).

[4] = biological target: T1, unphosphorylated c-FMS kinase (uFMS, Seq. ID no. 1) (Homo sapiens, UniProt P07333); experiment: biochemical
T1 sequence (P07333 538-972): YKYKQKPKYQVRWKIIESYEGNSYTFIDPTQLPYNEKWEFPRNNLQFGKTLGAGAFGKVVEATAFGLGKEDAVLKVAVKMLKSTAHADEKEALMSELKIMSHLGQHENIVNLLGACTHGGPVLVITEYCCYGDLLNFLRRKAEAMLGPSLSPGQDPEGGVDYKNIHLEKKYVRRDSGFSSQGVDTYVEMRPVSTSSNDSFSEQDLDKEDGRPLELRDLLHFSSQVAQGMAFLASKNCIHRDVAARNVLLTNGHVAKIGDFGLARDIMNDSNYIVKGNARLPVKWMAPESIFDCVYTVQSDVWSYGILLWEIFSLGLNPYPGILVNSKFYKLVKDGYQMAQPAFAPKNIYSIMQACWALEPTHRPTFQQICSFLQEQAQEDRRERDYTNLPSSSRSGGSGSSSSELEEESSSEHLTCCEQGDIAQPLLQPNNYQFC
Method: In this assay, the oxidation of NADH (thus the decrease at A340 nm) was continuously monitored spectrophometrically. The reaction mixture (100 μL) contained FMS (purchased from Millipore) (10 nM), polyE4Y (1 mg/mL), MgCl2 (10 mM), pyruvate kinase (4 units), lactate dehydrogenase (0.7 units), phosphoenol pyruvate (1 mM), NADH (0.28 mM) and ATP (500 μM) in 90 mM Tris buffer containing 0.2% octyl-glucoside and 1% DMSO, pH 7.5. The inhibition reaction was started by mixing serial diluted test compound with the above reaction mixture. The absorption at 340 nm was monitored continuously for 4 hours at 30° C. on Synergy 2 plate reader. The reaction rate was calculated using the 3 to 4 h time frame. Percent inhibition was obtained by comparison of reaction rate with that of a control (i.e. in the absence of test compound). IC50 values were calculated from a series of percent inhibition values determined at a range of inhibitor concentrations using software routines as implemented in the GraphPad Prism software package.

[5] = uPDGFRb, enzymatic assay, ATP 500 μM
[6] = uKIT, enzymatic assay, ATP 2000 μM
[7] = uFMS, enzymatic assay, ATP 500 μM

Sequence of unphosphorylated PDGFRβ kinase (uPDGFRβ, Seq. ID No. 3) (P09619 557-1106): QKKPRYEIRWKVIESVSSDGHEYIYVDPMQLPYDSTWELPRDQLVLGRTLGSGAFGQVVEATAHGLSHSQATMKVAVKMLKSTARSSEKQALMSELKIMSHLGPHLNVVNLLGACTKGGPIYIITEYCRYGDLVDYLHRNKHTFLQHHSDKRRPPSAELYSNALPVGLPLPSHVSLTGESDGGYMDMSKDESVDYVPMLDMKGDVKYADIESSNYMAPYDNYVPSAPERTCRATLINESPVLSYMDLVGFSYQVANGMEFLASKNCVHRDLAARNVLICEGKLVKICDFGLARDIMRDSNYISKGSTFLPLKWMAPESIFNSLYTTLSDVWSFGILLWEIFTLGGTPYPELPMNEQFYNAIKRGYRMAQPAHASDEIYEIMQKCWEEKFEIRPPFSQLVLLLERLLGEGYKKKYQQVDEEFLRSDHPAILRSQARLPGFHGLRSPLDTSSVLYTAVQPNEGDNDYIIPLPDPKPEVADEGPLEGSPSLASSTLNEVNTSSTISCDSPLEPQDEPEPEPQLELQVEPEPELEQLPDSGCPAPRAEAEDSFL
Sequence of unphosphorylated c-KIT kinase (uKIT, Seq. ID no. 2) (P10721 with tags, fused parts or gaps): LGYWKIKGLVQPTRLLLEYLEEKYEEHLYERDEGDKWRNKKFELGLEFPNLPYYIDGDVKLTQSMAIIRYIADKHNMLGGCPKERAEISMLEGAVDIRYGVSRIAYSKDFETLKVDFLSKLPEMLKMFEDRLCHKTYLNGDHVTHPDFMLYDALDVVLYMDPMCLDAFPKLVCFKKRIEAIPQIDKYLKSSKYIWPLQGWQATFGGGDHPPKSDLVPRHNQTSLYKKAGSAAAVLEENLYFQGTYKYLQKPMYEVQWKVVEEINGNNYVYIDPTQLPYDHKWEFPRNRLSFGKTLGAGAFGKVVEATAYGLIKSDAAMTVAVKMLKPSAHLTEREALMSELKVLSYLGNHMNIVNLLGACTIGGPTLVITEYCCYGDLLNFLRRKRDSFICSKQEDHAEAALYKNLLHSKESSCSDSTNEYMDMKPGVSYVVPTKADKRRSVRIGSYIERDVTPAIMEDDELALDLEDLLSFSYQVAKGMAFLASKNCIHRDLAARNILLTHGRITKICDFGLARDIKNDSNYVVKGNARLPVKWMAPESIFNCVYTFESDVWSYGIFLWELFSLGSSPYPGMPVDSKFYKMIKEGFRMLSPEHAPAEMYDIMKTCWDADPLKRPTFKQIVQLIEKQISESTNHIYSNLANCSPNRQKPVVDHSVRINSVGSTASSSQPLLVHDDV

IC50 (osteoclast precursors) | IC50 [1] | IC50 [2, 5] | IC50 [3, 6] | IC50 [4, 7] | IC50 ([2]; IC50 (nM) uPDGFRβ, Table 3) | IC50 ([3]; IC50 (nM) uKIT, Table 3) | IC50 ([4]; IC50 (nM) uFMS, Table 3) | Compound | IC50 (M-NFS-60 cells)
< 10 nM | < 10 nM | 100 to 1000 nM | > 1000 nM | < 10 nM |  |  |  | COC(C)(C)C(=O)NC(=O)Nc1ccc(Oc2ccnc(-c3cn(C)cn3)c2)cn1 [Example 132, 2-methoxy-2-methyl-N-((5-((2-(1-methyl-1H-imidazol-4-yl)pyridin-4-yl)oxy)pyridin-2-yl)carbamoyl)propanamide] | 10 to 100 nM
< 10 nM | < 10 nM | > 1000 nM | 100 to 1000 nM | < 10 nM |  |  |  | C=CCn1cc(-c2cc(Oc3ccc(NC(=O)NC(=O)C(C)(C)OC)nc3)ccn2)cn1 [Example 172, N-((5-((2-(1-allyl-1H-pyrazol-4-yl)pyridin-4-yl)oxy)pyridin-2-yl)carbamoyl)-2-methoxy-2-methylpropanamide] | 10 to 100 nM
10 to 100 nM | < 10 nM | > 1000 nM | > 1000 nM | 10 to 100 nM |  |  |  | COC(C)(C)C(=O)NC(=O)Nc1ccc(Oc2ccnc(-c3cnc(C)o3)c2)cn1 [Example 159, 2-methoxy-2-methyl-N-((5-((2-(2-methyloxazol-5-yl)pyridin-4-yl)oxy)pyridin-2-yl)carbamoyl)propanamide] | 10 to 100 nM
10 to 100 nM | 10 to 100 nM | > 1000 nM | > 1000 nM | < 10 nM |  |  |  | CCOC(C)(C)C(=O)NC(=O)Nc1ccc(Oc2ccnc(-c3cnc(C)s3)c2)cn1 [Example 124, 2-ethoxy-2-methyl-N-((5-((2-(2-methylthiazol-5-yl)pyridin-4-yl)oxy)pyridin-2-yl)carbamoyl)propanamide] | 10 to 100 nM
< 10 nM | < 10 nM | 10 to 100 nM | < 10 nM | < 10 nM |  |  |  | Cn1cc(-c2cc(Oc3ccc(NC(=O)NC(=O)C4CC(C)(C)C4)nc3)ccn2)cn1 [Example 2, 3,3-dimethyl-N-((5-((2-(1-methyl-1H-pyrazol-4-yl)pyridin-4-yl)oxy)pyridin-2-yl)carbamoyl)cyclobutanecarboxamide] | < 10 nM
< 10 nM | 10 to 100 nM | > 1000 nM | 100 to 1000 nM | < 10 nM |  |  |  | CCn1cc(-c2cc(Oc3ccc(NC(=O)NC(=O)C(C)(C)OC)nc3)ccn2)cn1 [Example 170, N-((5-((2-(1-ethyl-1H-pyrazol-4-yl)pyridin-4-yl)oxy)pyridin-2-yl)carbamoyl)-2-methoxy-2-methylpropanamide] | < 10 nM
< 10 nM | < 10 nM | < 10 nM | < 10 nM | < 10 nM |  |  |  | Cn1cc(-c2cc(Oc3ccc(NC(=O)NC(=O)CCC4(C(F)(F)F)CC4)nc3)ccn2)cn1 [Example 3, N-((5-((2-(1-methyl-1H-pyrazol-4-yl)pyridin-4-yl)oxy)pyridin-2-yl)carbamoyl)-3-(1-(trifluoromethyl)cyclopropyl)propanamide] | < 10 nM
< 10 nM | 10 to 100 nM | 100 to 1000 nM | 100 to 1000 nM | < 10 nM | 168 nM | 165 nM | 8 nM | Cn1cc(-c2cc(Oc3ccc(NC(=O)NC(=O)CC4CCOCC4)nc3)ccn2)cn1 [Example 4, N-((5-((2-(1-methyl-1H-pyrazol-4-yl)pyridin-4-yl)oxy)pyridin-2-yl)carbamoyl)-2-(tetrahydro-2H-pyran-4-yl)acetamide] | < 10 nM
< 10 nM | 10 to 100 nM | 100 to 1000 nM | 100 to 1000 nM | < 10 nM |  |  |  | Cn1cc(-c2cc(Oc3ccc(NC(=O)NC(=O)C(C)(C)C)nc3)ccn2)cn1 [Example 26, N-((5-((2-(1-methyl-1H-pyrazol-4-yl)pyridin-4-yl)oxy)pyridin-2-yl)carbamoyl)pivalamide] | < 10 nM
